Reference: US10947252B2, “Inhibitors of KEAP1-Nrf2 protein-protein interaction” (Janssen Pharmaceutica NV, priority 2018, dated 2021)

Experiments:
[1] = target: Kelch domain of human KEAP1 (321-624 aa) (Homo sapiens (Human), UniProt Q14145); assay: KEAP1 KELCH ThermoFluor binding assay; settings: KEAP Kelch […], 1,8-ANS, pH 7.0, average of results obtained, read-out: Tf Kd;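 further: Ligand-induced melting temperature shift of E. coli-expressed KEAP1 Kelch protein, Kd estimated from concentration-response curves of ΔTm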
Chain of Kelch domain of human KEAP1 (321-624 aa) (Q14145 321-624): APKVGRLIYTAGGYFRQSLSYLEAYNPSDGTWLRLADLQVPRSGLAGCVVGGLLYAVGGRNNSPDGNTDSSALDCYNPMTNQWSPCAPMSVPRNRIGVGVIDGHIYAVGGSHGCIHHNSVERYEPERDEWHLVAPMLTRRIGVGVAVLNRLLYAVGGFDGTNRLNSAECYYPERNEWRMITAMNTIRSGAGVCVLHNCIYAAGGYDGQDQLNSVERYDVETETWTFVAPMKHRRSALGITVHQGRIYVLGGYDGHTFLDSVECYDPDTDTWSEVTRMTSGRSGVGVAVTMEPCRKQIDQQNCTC

[2] = system: Glo-Response ARE-luc2P HEK293 cell line; assay: ARE luciferase reporter cell-based assay; settings: Homo sapiens, HEK293, 24 h, average of results obtained;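 further: luciferase signal tracks Nrf2 activation of the ARE once compounds disrupt KEAP1-Nrf2 binding, read with One-Glo reagent, DMSO serving as low control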

| SMILES | Kd [1] [µM] | EC50 [2] [µM] |
| --- | --- | --- |
| CCn1nnc2c(C)c([C@@H](c3ccc(C)c(CN4CC5(CCOCC5)Oc5ncccc5S4(=O)=O)n3)C(C)(C)C(=O)O)ccc21 (single isomer, unassigned) [Example 556, (*R)-3-(6-((1′,1′-Dioxido-2,3,5,6-tetrahydrospiro[pyran-4,4′-pyrido[2,3-b][1,4,5]oxathiazepin]-2′(3′H)-yl)methyl)-5-methylpyridin-2-yl)-3-(1-ethyl-4-methyl-1H-benzo[d][1,2,3]triazol-5-yl)-2,2-dimethylpropanoic Acid] | 4.94 | 1.75 |
| Cc1cnc2c(c1)S(=O)(=O)N(Cc1cc([C@H](c3ccn4c(C(F)F)nnc4c3C)C(C)(C)C(=O)O)ccc1C)CC1(CC1)O2 (single isomer, unassigned) [Example 561, (*R)-3-(3-(Difluoromethyl)-8-methyl-[1,2,4]triazolo[4,3-a]pyridin-7-yl)-2,2-dimethyl-3-(4-methyl-3-((8′-methyl-1′,1′-dioxidospiro[cyclopropane-1,4′-pyrido[2,3-b][1,4,5]oxathiazepin]-2′(3′H)-yl)methyl)phenyl)propanoic Acid] | 0.0525 | 0.258 |
| Cc1ncc([C@@H](CC(=O)O)c2ccn3c(C(F)(F)F)nnc3c2C)cc1CN1CC2(CCOCC2)Oc2ncccc2S1(=O)=O (single isomer, unassigned) [Example 562, (*S)-3-(5-((1′,1′-Dioxido-2,3,5,6-tetrahydrospiro[pyran-4,4′-pyrido[2,3-b][1,4,5]oxathiazepin]-2′(3′H)-yl)methyl)-6-methylpyridin-3-yl)-3-(8-methyl-3-(trifluoromethyl)-[1,2,4]triazolo[4,3-a]pyridin-7-yl)propanoic Acid] | 0.0148 | 2.49 |
| Cc1cnc2c(c1)S(=O)(=O)N(Cc1cc([C@@H](CC(=O)O)c3ccn4c(C(F)(F)F)nnc4c3C)cnc1C)CC1(CC1)O2 (single isomer, unassigned) [Example 563, (*S)-3-(8-Methyl-3-(trifluoromethyl)-[1,2,4]triazolo[4,3-a]pyridin-7-yl)-3-(6-methyl-5-((8′-methyl-1′,1′-dioxidospiro[cyclopropane-1,4′-pyrido[2,3-b][1,4,5]oxathiazepin]-2′(3′H)-yl)methyl)pyridin-3-yl)propanoic Acid] | 0.021 | > 20 |
| Cc1ncc([C@H](CC(=O)O)c2ccn3c(C(F)(F)F)nnc3c2C)cc1CN1CC2(CCOCC2)Oc2ncccc2S1(=O)=O (single isomer, unassigned) [Example 564, (*R)-3-(5-((1′,1′-Dioxido-2,3,5,6-tetrahydrospiro[pyran-4,4′-pyrido[2,3-b][1,4,5]oxathiazepin]-2′(3′H)-yl)methyl)-6-methylpyridin-3-yl)-3-(8-methyl-3-(trifluoromethyl)-[1,2,4]triazolo[4,3-a]pyridin-7-yl)propanoic Acid] | 0.323 | > 20 |
| Cc1cnc2c(c1)S(=O)(=O)N(Cc1cc([C@H](CC(=O)O)c3ccn4c(C(F)(F)F)nnc4c3C)cnc1C)CC1(CC1)O2 (single isomer, unassigned) [Example 565, (*R)-3-(8-Methyl-3-(trifluoromethyl)-[1,2,4]triazolo[4,3-a]pyridin-7-yl)-3-(6-methyl-5-((8′-methyl-1′,1′-dioxidospiro[cyclopropane-1,4′-pyrido[2,3-b][1,4,5]oxathiazepin]-2′(3′H)-yl)methyl)pyridin-3-yl)propanoic Acid] | 0.0594 | > 20 |
| Cc1ncc([C@@H](c2ccn3c(C(F)(F)F)nnc3c2C)C(C)(C)C(=O)O)cc1CN1CC2(CCOCC2)Oc2ncccc2S1(=O)=O (single isomer, unassigned) [Example 571, (*R)-3-(5-((1′,1′-dioxido-2,3,5,6-tetrahydrospiro[pyran-4,4′-pyrido[2,3-b][1,4,5]oxathiazepin]-2′(3′H)-yl)methyl)-6-methylpyridin-3-yl)-2,2-dimethyl-3-(8-methyl-3-(trifluoromethyl)-[1,2,4]triazolo[4,3-a]pyridin-7-yl)propanoic Acid] | 5.85 | > 20 |
| Cc1cnc2c(c1)S(=O)(=O)N(Cc1cc([C@@H](c3ccn4c(C(F)F)nnc4c3C)C(C)(C)C(=O)O)ccc1C)CC1(CCOCC1)O2 (single isomer, unassigned) [Example 576, (*S)-3-(3-(Difluoromethyl)-8-methyl-[1,2,4]triazolo[4,3-a]pyridin-7-yl)-2,2-dimethyl-3-(4-methyl-3-((8′-methyl-1′,1′-dioxido-2,3,5,6-tetrahydrospiro[pyran-4,4′-pyrido[2,3-b][1,4,5]oxathiazepin]-2′(3′H)-yl)methyl)phenyl)propanoic Acid] | < 0.001 | 0.00234 |

Further lines, with some results ahead:

| Kd [1] [µM] | SMILES | EC50 [2] [µM] |
| --- | --- | --- |
| < 0.001 | CCn1nnc2c(C)c([C@H](c3ccc(C)c(CN4CC5(CCOCC5)Oc5ncc(C)cc5S4(=O)=O)n3)C(C)(C)C(=O)O)ccc21 (single isomer, unassigned) [Example 557, (*S)-3-(1-Ethyl-4-methyl-1H-benzo[d][1,2,3]triazol-5-yl)-2,2-dimethyl-3-(5-methyl-6-((8′-methyl-1′,1′-dioxido-2,3,5,6-tetrahydrospiro[pyran-4,4′-pyrido[2,3-b][1,4,5]oxathiazepin]-2′(3′H)-yl)methyl)pyridin-2-yl)propanoic Acid] | 0.00056 |
| 0.343 | CCn1nnc2c(C)c([C@@H](c3ccc(C)c(CN4CC5(CCOCC5)Oc5ncc(C)cc5S4(=O)=O)n3)C(C)(C)C(=O)O)ccc21 (single isomer, unassigned) [Example 558, (*R)-3-(1-Ethyl-4-methyl-1H-benzo[d][1,2,3]triazol-5-yl)-2,2-dimethyl-3-(5-methyl-6-((8′-methyl-1′,1′-dioxido-2,3,5,6-tetrahydrospiro[pyran-4,4′-pyrido[2,3-b][1,4,5]oxathiazepin]-2′(3′H)-yl)methyl)pyridin-2-yl)propanoic Acid] | 0.195 |
| < 0.001 | Cc1cnc2c(c1)S(=O)(=O)N(Cc1cc([C@@H](c3ccn4c(C(F)F)nnc4c3C)C(C)(C)C(=O)O)ccc1C)CC1(CC1)O2 (single isomer, unassigned) [Example 560, (*S)-3-(3-(Difluoromethyl)-8-methyl-[1,2,4]triazolo[4,3-a]pyridin-7-yl)-2,2-dimethyl-3-(4-methyl-3-((8′-methyl-1′,1′-dioxidospiro[cyclopropane-1,4′-pyrido[2,3-b][1,4,5]oxathiazepin]-2′(3′H)-yl)methyl)phenyl)propanoic Acid] | 0.0019 |
| < 0.001 | Cc1ncc([C@H](c2ccn3c(C(F)(F)F)nnc3c2C)C(C)(C)C(=O)O)cc1CN1CC2(CCOCC2)Oc2ncccc2S1(=O)=O (single isomer, unassigned) [Example 570, (*S)-3-(5-((1′,1′-Dioxido-2,3,5,6-tetrahydrospiro[pyran-4,4′-pyrido[2,3-b][1,4,5]oxathiazepin]-2′(3′H)-yl)methyl)-6-methylpyridin-3-yl)-2,2-dimethyl-3-(8-methyl-3-(trifluoromethyl)-[1,2,4]triazolo[4,3-a]pyridin-7-yl)propanoic Acid] | 1.12 |
